{"source": "patent US12054509B2", "about": "“Antimicrobial compounds, compositions, and uses thereof” (Lakewood Amedex, Inc., priority 2017, dated 2024)", "format_in_all_cases": "cell-based", "key": {"[1]": {"tested_on": "methicillin susceptible S. aureus (ATCC 29213)", "assay": "Bacterial cytological profiling at pH 4, 5.5, 7 (Example 8), S. aureus", "details": "for cell permeability / cell viability: pH 4", "procedure": "This bacterial cytological profiling (BCP) investigation uses methods and materials described previously by Nonejuie, P., Burkart, M., Poglianoa, K., Pogiano, J. (2013). Bacterial cytological profiling rapidly identifies the cellular pathways targeted by antibacterial molecules. Proc. Natl. Acad. Sci. U.S.A. 110(40):16169-16174. doi: 10.1073/pnas.1311066110.\nFor viable cell counts, cells are grown to OD600≈0.4 and diluted 1:1 into buffered or unbuffered media containing various compound concentrations. Samples are then collected and serially diluted (1:10) on a 96 well plate. Five microliters from each well are spotted on LB plates, incubated at 30° C., and viable cells are counted the next day.\nSamples are collected at 10, 30, 120, and 240 min of exposure for viable cell count and imaging. For imaging, E. coli and S. aureus 200 μL of treated cells per time point are stained with 0.8 μg/mL FM4-64, 1.5 μg/mL DAPI, and 0.4 μM SYTOXGreen (Molecular Probes/Invitrogen). P. aeruginosa samples are stained 0.4 μM SYTOX Green, 28 μg/mL DAN, and 1 μg/mL FM 4-64. Cells are transferred to an agarose pad (20% LB, 1% agarose) for imaging.\nFor Nu-3 and Nu-8 stocks (at pH 4, 5.5 and 7), stock concentration is 500 mg/mL. For pH 4, the stocks are prepared by dissolving Nu-3 in 25 mM citrate buffer and Nu-8 in 350 mM citric acid. For pH 5.5, the stocks are prepared by dissolving Nu-3 in 25 mM citric-phosphate and Nu-8 in 25 mM critic. For pH 7, the stocks are prepared by dissolving Nu-3 and Nu-8 in 25 mM Sorensen phosphate buffer. 2×LB (lysogeny broth) solutions are prepared with 50 mM citrate buffer for pH 4, 50 mM citrate-phosphate buffer for pH 5.5, and 50 mM Sorensen phosphate buffer for pH 7."}, "E. coli (ATCC 25922)": {"tested_on": "E. coli (ATCC 25922)", "assay": "Time kill assay in saline at pH 3.5 (Example 27)", "details": "for Log10 CFU/mL: pH 3.5", "procedure": "Log10 5 CFU of E. coli (ATCC 25922) were suspended in saline. Additionally, a sample of the saline only was prepared as a vehicle control (V.C.). Solutions of Nu-3, Nu-8, and Nu-10 at varying concentrations were adjusted to pH 3.5 with citric acid and added to the E. coli suspensions. At each time point (0, 1, 2.5, 5, 10, and 20 minutes), the treated bacterial suspensions were plated and incubated for 24 hrs, and each plate was read to determine the CFU count.\nTables 12-14 provide the time kill assay data for Nu-3 (Table 12), Nu-8 (Table 13) and Nu-10 (Table 14) against E. coli."}, "P. aeruginosa K2732": {"tested_on": "P. aeruginosa K2732", "assay": "Bacterial cytological profiling (Example 6), P. aeruginosa;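 on effect on cell envelope: tested at 1 0.5 and 0.25 times MIC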", "procedure": "This bacterial cytological profiling (BCP) study uses methods and materials described previously by Nonejuie, P., Burkart, M., Poglianoa, K., Pogiano, J. (2013). Bacterial cytological profiling rapidly identifies the cellular pathways targeted by antibacterial molecules. Proc. Natl. Acad. Sci. U.S.A. 110(40):16169-16174. doi: 10.1073/pnas.1311066110.\nWild type strains of E. coli ATCC 25922 or P. aeruginosa K2732 are grown in rich media (unbuffered 2× Lysogeny broth [LB]) at 30 C to an OD600˜0.4. These cultures are then split and each sample treated with the appropriate concentration of Nu-8 in unbuffered or buffered LB (final mixture OD600˜0.1). Cells exposed without Nu-8 are buffered to pH 4 with phosphoric acid.\nThe BCP is performed in LB media buffered to pH 4. The minimum inhibitory concentration (MIC) is measured for Nu-3, Nu-4, Nu-5, and Nu-8 against each bacterial strain. As one of ordinary skill in the art understands, minimum inhibitory concentrations are the lowest concentration of an antimicrobial that will inhibit the visible growth of a microorganism after overnight incubation. […] Cellular viability is assayed at three time points (5 minutes and 4 and 24 h following the onset of treatment).\nFor imaging E. coli, treated cells are stained with 1 μg/Ml FM4-64, 2 μg/mL DAPI, and 0.5 μM SYTOXGreen (Molecular Probes/Invitrogen). P. aeruginosa samples are stained 0.5 μM SYTOX Green, 28 μg/mL DAPI, and 4.5 μg/mL FM 4-64. Cells are transferred to an agarose pad (20% LB, 1% agarose) for imaging as described in Pogliano, J., Osborne, N., Sharp, M. D., Abanes-De Mello, A., Perez, A., Sun, Y.-L. and Pogliano, K. (1999), A vital stain for studying membrane dynamics in bacteria: a novel mechanism controlling septation during Bacillus subtilis sporulation. Molecular Microbiology, 31: 1149-1159. doi:10.1046/j.1365-2958.1999.01255.x."}}}
{"smiles": "CCCCOP(=O)(O)OC[C@H]1O[C@@H](n2ccc(N)nc2=O)C[C@@H]1OP(=O)(O)OCCCC", "note": "[Nu-8, sodium ((2R,3S,5R)-5-(4-amino-2-oxopyrimidin-1(2H)-yl)-3-((butoxyoxidophosphor-yl)oxy)tetrahydrofuran-2-yl)methyl butyl phosphate]", "values": [{"measurement": "cell permeability", "setting": "[1]; 125 mg/mL", "value": "< 4.3", "unit": "%"}, {"measurement": "cell viability", "setting": "[1]; 125 mg/mL, by 240 min, from 10^7.5 CFU/mL at study start", "value": "10^3 CFU/mL"}, {"measurement": "cell permeability", "setting": "[1]; 250 mg/mL", "value": "~60", "unit": "%"}, {"measurement": "cell viability", "setting": "[1]; 250 mg/mL, within 10 min", "value": "~10^4 CFU/mL"}, {"measurement": "cell growth", "setting": "[1]; pH 5.5 and 7, 125 mg/mL and 250 mg/mL, up to 24 h", "value": "slightly reduce cell growth"}, {"measurement": "Log10 CFU/mL", "setting": "E. coli (ATCC 25922); 2.5% solution, 0 min", "value": 5.20, "unit": "Log10 CFU/mL"}, {"measurement": "Log10 CFU/mL", "setting": "E. coli (ATCC 25922); 2.5% solution, 1 min", "value": 4.93, "unit": "Log10 CFU/mL"}, {"measurement": "Log10 CFU/mL", "setting": "E. coli (ATCC 25922); 2.5% solution, 2.5 min", "value": 4.90, "unit": "Log10 CFU/mL"}, {"measurement": "Log10 CFU/mL", "setting": "E. coli (ATCC 25922); 2.5% solution, 5 min", "value": 4.93, "unit": "Log10 CFU/mL"}, {"measurement": "Log10 CFU/mL", "setting": "E. coli (ATCC 25922); 2.5% solution, 10 min", "value": 4.90, "unit": "Log10 CFU/mL"}, {"measurement": "Log10 CFU/mL", "setting": "E. coli (ATCC 25922); 2.5% solution, 20 min", "value": 4.93, "unit": "Log10 CFU/mL"}, {"measurement": "Log10 CFU/mL", "setting": "E. coli (ATCC 25922); 5% solution, 0 min", "value": 5.20, "unit": "Log10 CFU/mL"}, {"measurement": "Log10 CFU/mL", "setting": "E. coli (ATCC 25922); 5% solution, 1 min", "value": 4.88, "unit": "Log10 CFU/mL"}, {"measurement": "Log10 CFU/mL", "setting": "E. coli (ATCC 25922); 5% solution, 2.5 min", "value": 4.92, "unit": "Log10 CFU/mL"}, {"measurement": "Log10 CFU/mL", "setting": "E. coli (ATCC 25922); 5% solution, 5 min", "value": 4.90, "unit": "Log10 CFU/mL"}, {"measurement": "Log10 CFU/mL", "setting": "E. coli (ATCC 25922); 5% solution, 10 min", "value": 4.95, "unit": "Log10 CFU/mL"}, {"measurement": "Log10 CFU/mL", "setting": "E. coli (ATCC 25922); 5% solution, 20 min", "value": 4.90, "unit": "Log10 CFU/mL"}, {"measurement": "Log10 CFU/mL", "setting": "E. coli (ATCC 25922); 10% solution, 0 min", "value": 5.20, "unit": "Log10 CFU/mL"}, {"measurement": "Log10 CFU/mL", "setting": "E. coli (ATCC 25922); 10% solution, 1 min", "value": 4.86, "unit": "Log10 CFU/mL"}, {"measurement": "Log10 CFU/mL", "setting": "E. coli (ATCC 25922); 10% solution, 2.5 min", "value": 4.79, "unit": "Log10 CFU/mL"}, {"measurement": "Log10 CFU/mL", "setting": "E. coli (ATCC 25922); 10% solution, 5 min", "value": 4.76, "unit": "Log10 CFU/mL"}, {"measurement": "Log10 CFU/mL", "setting": "E. coli (ATCC 25922); 10% solution, 10 min", "value": 4.71, "unit": "Log10 CFU/mL"}, {"measurement": "Log10 CFU/mL", "setting": "E. coli (ATCC 25922); 10% solution, 20 min", "value": 4.75, "unit": "Log10 CFU/mL"}, {"measurement": "kill of the bacteria", "setting": "E. coli (ATCC 25922); concentration of 10%, at 20 mins", "value": "modest kill"}, {"measurement": "effect on cell envelope", "setting": "P. aeruginosa K2732; BCP", "value": "affect the cell envelope"}, {"measurement": "cell membrane permeability", "setting": "P. aeruginosa K2732; buffered pH 4 or unbuffered LB", "value": "increase cell membrane permeability"}]}
